Data taken from publication PMC9737648, “Novel Approaches for the Solid-Phase Synthesis of Dihydroquinazoline-2(1H)-One Derivatives and Biological Evaluation as Potential Anticancer Agents” (Molecules, 2022).

Columns and labels:
[1] = test system: human liver cancer cells (HepG-2); assay: MTT cytotoxicity assay, HepG-2; format: cell-based; settings: 72-h incubation
Method: (§1) The above cells were tested for cytotoxicity to identify the most promising antitumor drug among the synthesized quinazolinone derivatives.
(§2) An MTT assay was used to evaluate the in vitro cytotoxicity of the new compounds. The MTT assay depends on the reduction of soluble 3-([…])-2,5-diphenyl-tetrazolium bromide (MTT) into a blue purple formazan product, mainly by mitochondrial reductase activity inside living cells. […] The cells were suspended in growth medium and plated in 96-well culture plates at a density of 4 × 10^4 cells/well and incubated at 37 °C in a 5% CO2 incubator. […] Each experiment was performed at least 3 times.

[2] = test system: breast cancer cells (MDA-MB-231); assay: MTT cytotoxicity assay, MDA-MB-231; format: cell-based, human; settings: 72-h incubation
Method: as §1, §2

[3] = test system: ovarian cancer cells (A2780); assay: MTT cytotoxicity assay, A2780; format: cell-based, human; settings: 72-h incubation
Method: as §1, §2

[4] = test system: human hepatic stellate cells (LX-2); assay: MTT cytotoxicity assay, LX-2 normal control; format: cell-based; settings: 72-h incubation
Method: as §1, §2

[5] = DPPH• free radical scavenging assay; settings: for IC50: concentration required to scavenge 50% of the DPPH, 30 min in the dark; for antioxidant activity (in words): DPPH assay
Method: The quinazolinone derivatives were evaluated for their free radical scavenging activity at 320, 160, 80, 40, 20, and 10 µM concentration using the DPPH radical method, with ascorbic acid as the positive control (Table 3).
The antiradical activity of the compounds was estimated according to a slight modification of the procedure reported by Morales and Jimenez-Perez. […] Each sample (100 μL) at a different concentration was added to a freshly prepared solution of 1,1-diphenyl-2-picrylhydrazyl (DPPH•) radical (0.2 mM, 100 μL). The mixtures (200 μL) were placed in a 96-well microplate, shaken vigorously, and then left to stand for 30 min in the dark. Then, absorbance was immediately measured at a wavelength of 517 nm. Vc was used as the standard. The antiradical activity for each compound was determined in the Vc equivalent antioxidant capacity. The DPPH• solution in the presence of ethanol and in the absence of compounds was tested and used as a negative control. […] In all experiments, the samples were analyzed in triplicate, and activity for each compound was presented as the mean value ± SEM and used for evaluation of structure–activity relationships. […] Absorbance was taken at 520 nm using a microplate reader (Tecan, Männedorf, Switzerland).

Compound | IC50 [1] | IC50 [2] | IC50 [3] | IC50 [4] | IC50 [5] | IC50 ([1]; Homo sapiens, HepG2, 72 h) | IC50 ([2]; Homo sapiens) | IC50 ([3]; Homo sapiens, A2780, 72 h) | IC50 ([4]; Homo sapiens) | antioxidant activity (in words) [5]
4-{2-{1-(3-ammoniopropyl)-2-oxo-6-[2-(thiophen-2-yl)acetamido]-1,2,3,4-tetrahydroquinazolin-4-yl}acetamido}-4-carbamoylpiperidin-1-aminium 2,2,2-trifluoroacetate [CA5] | 65.5 ± 3.16 µM | 74.81 ± 0.27 µM | 32.3 ± 6.21 µM | > 100 µM | 465 ± 8.61 µM | – | – | – | – | –
NCCCN1C(=O)NC(CC(=O)NC(CO)C(N)=O)c2cc([N+](=O)[O-])ccc21 (centres unmarked) [CA1-6, 3-{4-{2-[(1-amino-3-hydroxy-1-oxopropan-2-yl)amino]-2-oxoethyl}-6-nitro-2-oxo-3,4-dihydroquinazolin-1(2H)-yl}propan-1-aminium 2,2,2-trifluoroacetate] | – | – | – | – | > 1000 µM | 52.3 ± 3.45 µM | 81.2 ± 1.54 µM | 83.2 ± 2.69 µM | 97.9 ± 15.6 µM | –
NCCCN1C(=O)NC(CC(=O)NC(CO)C(N)=O)c2cc(N)ccc21 (centres unmarked) [CA1-7, 4-{2-[(1-amino-3-hydroxy-1-oxopropan-2-yl)amino]-2-oxoethyl}-1-(3-ammoniopropyl)-2-oxo-1,2,3,4-tetrahydroquinazolin-6-aminium 2,2,2-trifluoroacetate] | – | – | – | – | 57.99 ± 0.38 µM | 59.3 ± 1.85 µM | 90.1 ± 10.9 µM | 79.8 ± 1.01 µM | > 100 µM | –
NCCCN1C(=O)NC(CC(=O)NC(CO)C(N)=O)c2cc(NC(=O)c3ccncc3)ccc21 (centres unmarked) [CA1-a, 3-{4-{2-[(1-amino-3-hydroxy-1-oxopropan-2-yl)amino]-2-oxoethyl}-6-(isonicotinamido)-2-oxo-3,4-dihydroquinazolin-1(2H)-yl}propan-1-aminium 2,2,2-trifluoroacetate] | – | – | – | – | > 1000 µM | 54.4 ± 3.45 µM | 86 ± 2.06 µM | 80 ± 2.15 µM | > 100 µM | –
NCCCN1C(=O)NC(CC(=O)NC(CO)C(N)=O)c2cc(NC(=O)c3ccccc3)ccc21 (centres unmarked) [CA1-b, 3-{4-{2-[(1-amino-3-hydroxy-1-oxopropan-2-yl)amino]-2-oxoethyl}-6-benzamido-2-oxo-3,4-dihydroquinazolin-1(2H)-yl}propan-1-aminium 2,2,2-trifluoroacetate] | – | – | – | – | > 1000 µM | 60.1 ± 3.88 µM | 76.6 ± 2.42 µM | > 100 µM | 85.8 ± 4.28 µM | –
Cc1ccc(C(=O)Nc2ccc3c(c2)C(CC(=O)NC(CO)C(N)=O)NC(=O)N3CCCN)cc1 (centres unmarked) [CA1-c, 3-{4-{2-[(1-amino-3-hydroxy-1-oxopropan-2-yl)amino]-2-oxoethyl}-6-(4-methylbenzamido)-2-oxo-3,4-dihydroquinazolin-1(2H)-yl}propan-1-aminium 2,2,2-trifluoroacetate] | 48.1 ± 2.34 µM | – | – | – | 387 ± 58.8 µM | < 50 µM | 92.4 ± 4.91 µM | > 100 µM | 85.4 ± 1.78 µM | –
NCCCN1C(=O)NC(CC(=O)NC(CO)C(N)=O)c2cc(NC(=O)c3ccc(F)cc3)ccc21 (centres unmarked) [CA1-d, 3-{4-{2-[(1-amino-3-hydroxy-1-oxopropan-2-yl)amino]-2-oxoethyl}-6-(4-fluorobenzamido)-2-oxo-3,4-dihydroquinazolin-1(2H)-yl}propan-1-aminium 2,2,2-trifluoroacetate] | 49.6 ± 1.91 µM | – | – | – | > 1000 µM | < 50 µM | 85.7 ± 4.87 µM | 88.3 ± 8.56 µM | > 100 µM | –
NCCCN1C(=O)NC(CC(=O)NC(CO)C(N)=O)c2cc(NC(=O)c3cccnc3)ccc21.O=C(O)C(F)(F)F (centres unmarked) [CA1-e, 3-{4-{2-[(1-amino-3-hydroxy-1-oxopropan-2-yl)amino]-2-oxoethyl}-6-(nicotinamido)-2-oxo-3,4-dihydroquinazolin-1(2H)-yl}propan-1-aminium 2,2,2-trifluoroacetate] | 37.6 ± 5.53 µM | – | 22.76 ± 0.22 µM | – | > 1000 µM | < 50 µM | 85.7 ± 5.3 µM | < 40 µM | > 100 µM | no antioxidant activity
NCCCN1C(=O)NC(CC(=O)NC(CO)C(N)=O)c2cc(NC(=O)c3ccccn3)ccc21 (centres unmarked) [CA1-f, 3-{4-{2-[(1-amino-3-hydroxy-1-oxopropan-2-yl)amino]-2-oxoethyl}-2-oxo-6-(picolinamido)-3,4-dihydroquinazolin-1(2H)-yl}propan-1-aminium 2,2,2-trifluoroacetate] | 44.4 ± 2.2 µM | – | – | – | > 1000 µM | < 50 µM | 81.3 ± 1.21 µM | > 100 µM | 97 ± 4.24 µM | –
NCCCN1C(=O)NC(CC(=O)NC(CO)C(N)=O)c2cc(NC(=O)COc3ccccc3)ccc21.O=C(O)C(F)(F)F (centres unmarked) [CA1-g, 3-{4-{2-[(1-amino-3-hydroxy-1-oxopropan-2-yl)amino]-2-oxoethyl}-2-oxo-6-(2-phenoxyacetamido)-3,4-dihydroquinazolin-1(2H)-yl}propan-1-aminium 2,2,2-trifluoroacetate] | 45.4 ± 0.59 µM | – | 24.9 ± 7.22 µM | – | > 1000 µM | < 50 µM | 82.21 ± 0.59 µM | < 40 µM | > 100 µM | no antioxidant activity
NCCCN1C(=O)NC(CC(=O)NC(CO)C(N)=O)c2cc(NC(=O)CCc3cccnc3)ccc21 (centres unmarked) [CA1-h, 3-{4-{2-[(1-amino-3-hydroxy-1-oxopropan-2-yl)amino]-2-oxoethyl}-2-oxo-6-[3-(pyridin-3-yl)propanamido]-3,4-dihydroquinazolin-1(2H)-yl}propan-1-aminium 2,2,2-trifluoroacetate] | – | – | – | – | > 1000 µM | 56.93 ± 0.47 µM | 82.2 ± 11.4 µM | 86.1 ± 3.73 µM | 97.5 ± 3.52 µM | –
NCCCN1C(=O)NC(CC(=O)NC(CO)C(N)=O)c2cc(NC(=O)Cc3cccs3)ccc21 (centres unmarked) [CA1-i, 3-{4-{2-[(1-amino-3-hydroxy-1-oxopropan-2-yl)amino]-2-oxoethyl}-2-oxo-6-[2-(thiophen-2-yl)acetamido]-3,4-dihydroquinazolin-1(2H)-yl}propan-1-aminium 2,2,2-trifluoroacetate] | – | – | 34.4 ± 5.61 µM | – | 557 ± 24.5 µM | 49.77 ± 0.12 µM | 89.7 ± 3.79 µM | < 40 µM | > 100 µM | –
COc1ccccc1S(=O)(=O)Nc1ccc2c(c1)C(CC(=O)NC(CO)C(N)=O)NC(=O)N2CCCN (centres unmarked) [CA1-j, 3-{4-{2-[(1-amino-3-hydroxy-1-oxopropan-2-yl)amino]-2-oxoethyl}-6-[(2-methoxyphenyl)sulfonamido]-2-oxo-3,4-dihydroquinazolin-1(2H)-yl}propan-1-aminium 2,2,2-trifluoroacetate] | – | – | – | – | > 1000 µM | 73.8 ± 1.03 µM | 76.3 ± 2.05 µM | 83.6 ± 1.24 µM | > 100 µM | –
CC(C)CCN1C(=O)NC(CC(=O)NC(CCCN)C(N)=O)c2cc(NC(=O)CCc3cccnc3)ccc21 (centres unmarked) [CA3, 5-amino-4-{2-{1-isopentyl-2-oxo-6-[3-(pyridin-3-yl)propanamido]-1,2,3,4-tetrahydroquinazolin-4-yl}acetamido}-5-oxopentan-1-aminium 2,2,2-trifluoroacetate] | – | – | – | – | > 1000 µM | 64.2 ± 4.69 µM | 86 ± 11.1 µM | 82.9 ± 2.13 µM | > 100 µM | –
CC(C)(NC(=O)CC1NC(=O)N(Cc2ccccc2)c2ccc(NC(=O)COc3ccccc3)cc21)C(N)=O (centres unmarked) [CA4, 2-{2-[1-benzyl-2-oxo-6-(2-phenoxyacetamido)-1,2,3,4-tetrahydroquinazolin-4-yl]acetamido}-2-methylpropanamide] | – | – | – | – | 951 ± 30.6 µM | 72.7 ± 2.76 µM | 87.1 ± 4.47 µM | 66.2 ± 4.1 µM | 72.9 ± 0.91 µM | –
O=C1O[C@H]([C@@H](O)CO)C(O)=C1O [Vc, ascorbic acid, reference compound] | – | – | – | – | 22.5 ± 0.57 µM | – | – | – | – | –
